Laboratory results published in PubChem BioAssay AID248 (DTP/NCI, 2004).
Values joined by “and” are separate entries in the source; they are usually repeats but may differ in a detail not shown here. Equal entries are not always repeated. Toxic doses and inconclusive results are not listed. No stated cut-off is given here; in the data, active means T/C of 150% or more; inactive means T/C below 125%.

System: L1210 leukemia ip in BDF1 mice, survival T/C
Assay: NCI In Vivo Anticancer Drug Screen. Data for tumor model L1210 Leukemia (intraperitoneal) in B6D2F1 (BDF1) mice
Conditions: endpoint: mean survival time, higher = longer survival
Summary of the method: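 Each compound was tested against a transplantable tumor grown in mice. The endpoint was survival, with treated animals benchmarked against vehicle controls as a simple ratio.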

[1] = dose: 100.0 mg/kg/injection, schedule: Q01DX001 (ip), vehicle: carboxymethylcellulose (CMC)
[2] = dose: 200.0 mg/kg/injection, schedule: Q01DX001 (ip), vehicle: carboxymethylcellulose (CMC)
[3] = dose: 100.0 mg/kg/injection, schedule: Q04DX002 (ip), vehicle: Klucel (hydroxypropylcellulose) (HPC)
[4] = dose: 100.0 mg/kg/injection, schedule: Q01DX009 (ip), vehicle: saline with Tween-80
[5] = dose: 200.0 mg/kg/injection, schedule: Q01DX009 (ip), vehicle: saline with Tween-80
[6] = dose: 400.0 mg/kg/injection, schedule: Q01DX009 (ip), vehicle: saline with Tween-80
[7] = dose: 50.0 mg/kg/injection, schedule: Q04DX003 (ip), vehicle: saline
[8] = dose: 100.0 mg/kg/injection, schedule: Q04DX003 (ip), vehicle: saline
[9] = dose: 100.0 mg/kg/injection, schedule: Q01DX009 (ip), vehicle: Klucel (hydroxypropylcellulose) (HPC)
[10] = dose: 200.0 mg/kg/injection, schedule: Q01DX009 (ip), vehicle: Klucel (hydroxypropylcellulose) (HPC)
[11] = dose: 400.0 mg/kg/injection, schedule: Q01DX009 (ip), vehicle: Klucel (hydroxypropylcellulose) (HPC)
[12] = dose: 100.0 mg/kg/injection, schedule: Q04DX003 (ip), vehicle: saline with Tween-80
[13] = dose: 200.0 mg/kg/injection, schedule: Q04DX003 (ip), vehicle: saline with Tween-80
[14] = dose: 400.0 mg/kg/injection, schedule: Q04DX003 (ip), vehicle: saline with Tween-80

Measured: T/C

CSCCC(N)C(=O)O (stereo not given)
inactive: dose: 40.0 mg/kg/injection, schedule: Q01DX009 (ip), vehicle: saline 96 % of control | dose: 80.0 mg/kg/injection, schedule: Q01DX009 (ip), vehicle: saline 107 % of control | [1] 92 % of control | dose: 100.0 mg/kg/injection, schedule: Q04DX003 (ip), vehicle: Klucel (hydroxypropylcellulose) (HPC) 104 % of control | dose: 160.0 mg/kg/injection, schedule: Q01DX009 (ip), vehicle: saline 102 % of control | [2] 95 % of control | dose: 200.0 mg/kg/injection, schedule: Q04DX003 (ip), vehicle: Klucel (hydroxypropylcellulose) (HPC) 98 % of control | dose: 320.0 mg/kg/injection, schedule: Q01DX009 (ip), vehicle: saline 98 % of control | dose: 400.0 mg/kg/injection, schedule: Q01DX001 (ip), vehicle: carboxymethylcellulose (CMC) 103 % of control | dose: 400.0 mg/kg/injection, schedule: Q04DX003 (ip), vehicle: Klucel (hydroxypropylcellulose) (HPC) 102 % of control

COc1ccc(C2Nc3ccccc3NC3CC(C)(C)CC(=O)C32)cc1 (stereo not given)
inactive: [3] 120 % of control | dose: 200.0 mg/kg/injection, schedule: Q04DX002 (ip), vehicle: Klucel (hydroxypropylcellulose) (HPC) 98 % of control | dose: 400.0 mg/kg/injection, schedule: Q04DX002 (ip), vehicle: Klucel (hydroxypropylcellulose) (HPC) 109 % of control

Nc1cc(OCc2ccccc2)cc(OCc2ccccc2)c1
inactive: dose: 25.0 mg/kg/injection, schedule: Q01DX009 (ip), vehicle: water 89 % of control | dose: 50.0 mg/kg/injection, schedule: Q01DX009 (ip), vehicle: water 97 % of control | dose: 100.0 mg/kg/injection, schedule: Q01DX009 (ip), vehicle: water 93 % of control

CC(=O)OCC1OC(n2cc(F)c(=O)[nH]c2=O)CC1OC(C)=O (stereo not given)
inactive: dose: 3.0 mg/kg/injection, schedule: Q01DX009 (ip), vehicle: saline 98 % of control | dose: 6.0 mg/kg/injection, schedule: Q01DX009 (ip), vehicle: saline 95 % of control | dose: 12.0 mg/kg/injection, schedule: Q01DX009 (ip), vehicle: saline 95 % of control | dose: 24.0 mg/kg/injection, schedule: Q01DX009 (ip), vehicle: saline 106 % of control | dose: 25.0 mg/kg/injection, schedule: Q01DX009 (ip), vehicle: saline 111 % of control | dose: 50.0 mg/kg/injection, schedule: Q01DX009 (ip), vehicle: saline 122 % of control | dose: 200.0 mg/kg/injection, schedule: Q01DX009 (ip), vehicle: saline 123 % of control

CCCCCCCCCCCC#N
inactive: [4] 107 % of control | [5] 96 % of control | [6] 90 % of control

C[N+]1(C2CCC3CCC2C3=O)CCCC1 (stereo not given)
inactive: dose: 75.0 mg/kg/injection, schedule: Q01DX001 (ip), vehicle: saline 97 % of control | dose: 150.0 mg/kg/injection, schedule: Q01DX001 (ip), vehicle: saline 97 % of control

Cc1cc(C)c2c(c1)CC2NC(=O)c1ccccc1 (stereo not given)
inactive: dose: 25.0 mg/kg/injection, schedule: Q04DX002 (ip), vehicle: Klucel (hydroxypropylcellulose) (HPC) 100 % of control | dose: 50.0 mg/kg/injection, schedule: Q04DX002 (ip), vehicle: Klucel (hydroxypropylcellulose) (HPC) 106 % of control | [3] 95 % of control

CC(C)CCCC(C)C1CCC2C3CCC45CC4C(=O)CCC5(C)C3CCC12C (stereo not given)
inactive: dose: 100.0 mg/kg/injection, schedule: Q01DX009 (ip), vehicle: acetone 87 % of control and 96 % of control | dose: 200.0 mg/kg/injection, schedule: Q01DX009 (ip), vehicle: acetone 103 % of control | dose: 400.0 mg/kg/injection, schedule: Q01DX009 (ip), vehicle: acetone 89 % of control and 94 % of control

CCN=C1N[N+]2=CCCCC2S1 (stereo not given)
inactive: [7] 103 % of control | [8] 109 % of control

O=[N+]([O-])c1ccc(Br)o1
inactive: dose: 6.25 mg/kg/injection, schedule: Q04DX003 (ip), vehicle: saline with Tween-80 110 % of control | dose: 12.5 mg/kg/injection, schedule: Q04DX003 (ip), vehicle: saline with Tween-80 101 % of control | dose: 25.0 mg/kg/injection, schedule: Q04DX003 (ip), vehicle: saline with Tween-80 105 % of control

CSc1ccc(C(=O)c2ccc(SC)cc2)cc1
inactive: [9] 98 % of control | [10] 98 % of control | [11] 95 % of control

O=CC1(c2ccccc2)SCCCS1
inactive: [8] 106 % of control | dose: 200.0 mg/kg/injection, schedule: Q04DX003 (ip), vehicle: saline 97 % of control | dose: 400.0 mg/kg/injection, schedule: Q04DX003 (ip), vehicle: saline 100 % of control

c1ccc([P+](Cc2ccc3c(c2)OCO3)(c2ccccc2)c2ccccc2)cc1
inactive: dose: 12.5 mg/kg/injection, schedule: Q01DX001 (ip), vehicle: saline 98 % of control | dose: 12.5 mg/kg/injection, schedule: Q01DX009 (ip), vehicle: saline 101 % of control | dose: 12.5 mg/kg/injection, schedule: Q04DX003 (ip), vehicle: saline 95 % of control | dose: 25.0 mg/kg/injection, schedule: Q01DX001 (ip), vehicle: saline 95 % of control | dose: 25.0 mg/kg/injection, schedule: Q04DX003 (ip), vehicle: saline 106 % of control | dose: 50.0 mg/kg/injection, schedule: Q01DX001 (ip), vehicle: saline 96 % of control | [7] 88 % of control

COc1ccc(OC)c(NC(=O)Nc2ccc(SC)cc2)c1
inactive: [9] 96 % of control | [10] 90 % of control | [11] 98 % of control

C/C(=N\N1CCCCCC1)c1ccccc1
inactive: dose: 100.0 mg/kg/injection, schedule: Q01DX009 (sc), vehicle: olive oil, sesame oil, peanut oil 95 % of control | dose: 100.0 mg/kg/injection, schedule: Q04DX003 (sc), vehicle: olive oil, sesame oil, peanut oil 112 % of control | dose: 200.0 mg/kg/injection, schedule: Q01DX009 (sc), vehicle: olive oil, sesame oil, peanut oil 98 % of control | dose: 200.0 mg/kg/injection, schedule: Q04DX003 (sc), vehicle: olive oil, sesame oil, peanut oil 105 % of control | dose: 400.0 mg/kg/injection, schedule: Q01DX009 (sc), vehicle: olive oil, sesame oil, peanut oil 97 % of control | dose: 400.0 mg/kg/injection, schedule: Q04DX003 (sc), vehicle: olive oil, sesame oil, peanut oil 105 % of control

CSc1ccc(NS(=O)(=O)CCNC(=O)C(O)C(C)(C)CO)cc1 (stereo not given)
inactive: [4] 100 % of control | [12] 104 % of control | [5] 103 % of control | [13] 96 % of control | [6] 92 % of control | [14] 109 % of control

COc1ccc(C2CCCCCC2OS(C)(=O)=O)c(OC)c1OC (stereo not given)
inactive: [1] 108 % of control | [2] 119 % of control

C=CCC1C(=O)CC(C)(C)CC1=O
inactive: [12] 103 % of control | [13] 103 % of control | [14] 111 % of control

O=S1(=O)C(Cl)c2ccccc2-c2ccccc2C1Cl (stereo not given)
inactive: dose: 25.0 mg/kg/injection, schedule: Q04DX002 (ip), vehicle: gum acacia 89 % of control | dose: 50.0 mg/kg/injection, schedule: Q04DX002 (ip), vehicle: gum acacia 89 % of control | dose: 100.0 mg/kg/injection, schedule: Q04DX002 (ip), vehicle: gum acacia 93 % of control
